The results in this text go back to patent publication US5948635A, “Totally Synthetic Affinity Reagents” (University of North Carolina at Chapel Hill, priority 1995, dated 1999).

No end group written: not given here.

The target of assay [1] is calmodulin (Homo sapiens, UniProt P0DP23). Description: Competition with SEQ ID NO 176 peptide binding to calmodulin. The conditions noted are these: FIG. 20, FIG. 23. The source says:
To examine where the SEQ ID NO 176 peptide bound the CaM molecule, we attempted to block binding with other peptides that have been previously shown to bind to the central, linker region of CaM (See Persechini and Kretsinger, 1988, J. Cardiovasc. Pharmacol 12:S1-12; Ikura et al., 1992, Cell Calcium 13:391-400; Chapman et al., 1992, Biochemistry 31:12819-25; Meador et al., 1992, Science 257: 1251-1255). It is this region of CaM that binds various proteins to regulate their activity in a Ca^2+ -dependent manner.
If the site responsible for binding of the CaM specific TSARs to CaM were only a five or six residue peptide, then one would have expected to isolate about 10-20 CaM binding TSARs from the TSAR-12 library. However, since only one particular CaM binding TSAR was repeatedly isolated, it appears that the site of interaction between the CaM specific TSAR and CaM is complex, i.e., the site requires more than simply 5 or 6 residues. To illustrate regions of the SEQ ID NO 176 that are involved in binding to CaM, the ability of 4 modified peptides to compete with SEQ ID NO 176 binding for calmodulin were examined. The modified peptides were (a) the N-terminal 13 residues […] SEQ ID NO 185; (b) the C-terminal 13 residues […] SEQ ID NO 186; (c) the SEQ ID NO 176 peptide where, at position 4, W was changed to A--[…] SEQ ID NO. 184; and (d) a peptide having the reverse sequence […] SEQ ID NO. […]

Assay [2] concerns 7E11-C5 monoclonal antibody. The experiment in a line: Competitive binding ELISA: inhibition of 7E11-C5 binding to LNCaP cell lysate antigen. To be noted: peptides, amide form; FIG. 13. The arrangement: species or system mouse. As for the experimental part: Each well of a polyvinylchloride 96-well ELISA plate (Cooke, Alexandria, Va.) was coated with an LNCAP human prostate carcinoma cell (ATCC # CRL 1740) lysate. Lysates were prepared by harvesting confluent LNCaP cell cultures, resuspending cells in 4 volumes of 1 mM MgCl2 for 5 minutes, mixing with 2 μg of DNase (Boehringer Mannheim, Indianapolis, Ind.) and homogenizing using 40 strokes in a Dounce homogenizer (Wheaton, Millville, N.J.). LNCaP lysate (50 μl per well of a 1:50 dilution in 0.1×PBS [Dulbecco's pH 7.2, JRH, Denver, Pa.]) was air dried overnight at 37° C. onto wells of the ELISA plate. ELISA plates were blocked with 150 μl/well of 1% BSA (Pentex Fraction V, Miles, Kankakee, Ill.) in PBS for 60 minutes at room temperature.
The blank control consisted of blocking solution in the absence of primary antibody. 7E11-C5 monoclonal antibody pre-incubated with buffer without any phage (MAb) was the positive control. The expression vector m663 phage was also employed as a non-specific phage control.
Plates were washed 4 times with 0.05% Tween-20 in PBS. Bound monoclonal antibody 7E11-C5 was detected by: (1) incubating with 50 μl/well of anti-mouse IgG1 -HRP (Fisher Biotech, Orangeburg, N.Y.) diluted to 0.4 ng/ml in 1% BSA-PBS, for 60 minutes at room temperature; (2) washing plates 6 times with 0.05% Tween-20 in PBS; and (3) adding 100 μl/well ABTS substrate [200 μl ABTS, (Boehringer Mannheim), 10 ml citrate buffer (pH 4), 10 μl H2 O2 ]. Optical density of the reactions products was determined by endpoint analysis on a Multiscan plate reader (Molecular Devices, Menlo Park, Calif.). The competitive inhibition (%) was determined by comparing the reactivity of the positive control to the test samples.
(§1) The TSAR-based peptide (SEQ ID NO 31) concentration ranged from 1.75 to 1130 nM. […] Two additional control peptides (amide form) having the following amino acid sequences: RGD-21: NH2 -[…]-CONH2 (SEQ ID NO 32) and CYT-379: NH2 -[…]-CONH2 (SEQ ID NO 33) were also evaluated. Herein these control peptides are referred to as Control Peptide 1 and Control Peptide 2. […] The B139 monoclonal antibody, which is a murine IgG1 monoclonal antibody that reacts with all human epithelial cells, recognizes a different antigen in the LNCaP extract from that recognized by the 7E11-C5 antibody. The control B139 monoclonal antibody was used at a concentration of 9 ng/ml. The results obtained are illustrated in FIG. 13.
(In an ELISA, binding on a coated surface is turned into a signal by an enzyme label.)

Assay [3] has as its system B139 monoclonal antibody. The experiment in a line: Competitive binding ELISA: inhibition of B139 binding to LNCaP extract. The conditions noted are these: B139 9 ng/ml; FIG. 13. The arrangement: species or system murine. The procedure:
as §1

The test system of assay [4] is 7E11-C5 monoclonal antibody. Description: ELISA of antibody binding to immobilized peptide. The conditions noted are these: peptide adsorbed on polyvinylchloride plates, 0.5-500 μg/ml; FIG. 14, 15. The arrangement: species or system mouse. As for the experimental part:
(§2) Peptides, diluted in 10% PBS (Dulbecco's, pH 7.2, Hazelton), were immobilized by adsorption on polyvinylchloride plates. SEQ ID NO 31 (amide form) was diluted in 10% PBS at 0.5, 5, 50 or 500 μg/ml. Control peptide 2 in 10% PBS at the same range of concentrations served as the control. A 50 μl volume of the test or control peptide solution was added to each well and incubated overnight at 4° C. The peptide solution was removed and 10% BSA-PBS was added as blocking solution. […] Bound 7E11-C5 monoclonal antibody was detected with anti-mouse IgG1 -HRP as described above herein.

The test system of assay [5] is B139 monoclonal antibody. The experiment in a line: ELISA of control antibody binding to immobilized peptide. The arrangement: species or system murine. The conditions noted are these: peptide coated at 5 μg/ml; FIG. 15. The procedure:
as §2

The subject of assay [6] is parvalbumin. The experiment in a line: CaM-12.1 phage binding to wells coated with parvalbumin. To be noted: ELISA plate wells. As for the experimental part:
(§3) The binding properties of the CaM-12.1 TSAR were further examined in several ways. First, the ability of CaM-12.1 phage to bind other calcium-binding proteins was tested. […] Second, the ability of natural calmodulin binding peptides and proteins to compete for binding of the CaM-12.1 phage with CaM was tested. […] Third, the ability of a synthetic non-peptide CaM-antagonist, W7, (#681629; Calbiochem, San Diego, Calif.), was tested for its ability to compete for binding of CaM-12.1 to CaM. […] In summary: (1) CaM-12.1 binds CaM specifically, and not because it is a high-affinity Ca^2 +-binding protein; (2) CaM-12.1 binds CaM at a site partially overlapping or influenced, by the binding sites of CaM-dependentprotein kinase peptide, melittin and W7.

Assay [7] deals with vitamin D calcium-binding protein. The experiment in a line: CaM-12.1 phage binding to wells coated with vitamin D calcium-binding protein. To be noted: ELISA plate wells. As for the experimental part:
as §3

The subject of assay [8] is calcineurin. Description: CaM-12.1 phage binding to calcineurin. The procedure: as §3

As to “GAARAQTRLASWK [SEQ ID NO 186, C-terminal 13 residues]”, in assay [1], the “competition with binding of peptide SEQ ID NO 176 to CaM” value was “none of the four peptides were able to compete”.

Regarding “STVPRAIEDSLRGGAARAQTRLASWK [SEQ ID NO. 184]”, the “competition with binding of peptide SEQ ID NO 176 to CaM” value in assay [1] is “none of the four peptides were able to compete”.

Consider “PSYYRGDAGPSYYRGDAG-NH2 [Control Peptide 1]”, for which the “competitive inhibition of 7E11-C5 binding to LNCaP extract by peptide” value in assay [2] is “did not effectively compete”. In addition, the “competitive inhibition of B139 binding to LNCaP extract by peptide” value in assay [3] was “neither SEQ ID NO 31 (amide form) nor either of Control Peptide 1 and Control Peptide 2 competitively inhibited the binding”. In assay [4], the “binding of 7E11-C5 to immobilized peptide” value is “did not bind to either of the tested antibodies”. Moreover, in assay [5], the “binding of B139 to immobilized peptide” value is “did not bind to either of the tested antibodies”.

With “VPRWIEDSLRGGAARAQTRLASA [CaM-12.1]”, the binding to parvalbumin entry in assay [6] was “failed to bind”. Besides, the “binding to vitamin D calcium-binding protein” value in assay [7] was “failed to bind”. The binding to calcineurin result in assay [8] was “did not bind”.
